According to publication PMC11010885, “Functional Analysis and Tissue-Specific Expression of Calcitonin and CGRP with RAMP-Modulated Receptors CTR and CLR in Chickens” (Animals : an Open Access Journal from MDPI, 2024):
Entries after “also recorded” stand apart in the source; their conditions may differ.

Legend:
Assay type in all cases: cell-based
chicken CTR + RAMP3 [1] = experiment: cAMP/PKA pGL3-CRE-luciferase reporter assay, CTR + RAMP3 in CHO cells; conditions: 10^−12 M to 10^−6 M, 6 h, mean ± SEM, n = 3, read-out: EC50, cAMP/PKA signaling pathway
Procedure: (§1) Chinese hamster ovary (CHO) cells were cultured in Dulbecco’s modified Eagle’s medium (DMEM) supplemented with 10% (vol/vol) fetal bovine serum (HyClone, Logan, UT, USA), 100 U/mL penicillin G and 100 μg/mL streptomycin. The cells were maintained in a 90 mm culture dish (Nunc, Rochester, NY, USA) and incubated at 37 °C with 5% CO2. To investigate the signaling pathways associated with each receptor in CHO cells, three different reporter systems (pGL3-CRE-luciferase, pGL4-SRE-luciferase, and pGL3-NFAT-RE-luciferase) were utilized to monitor intracellular cAMP/PKA and MAPK/ERK signaling pathways and calcium mobilization of the activated receptors, respectively.
(§2) Prior to the transfection procedure, the cells were initially cultured in 6-well plates (Nunc, Rochester, NY, USA), maintaining a seeding density of approximately 300,000 cells per well. Upon achieving approximately 70% confluence, the cells underwent a co-transfection process. […] The fluorescence activity of the luciferase in each treatment group was measured using a multimode microplate reader (TriStar LB941, Berthold Technologies, Bad Wildbad, Germany). Finally, the fluorescence activity of each treatment group was expressed as a relative increase ratio compared to the control group.

chicken CTR + RAMPs = experiment: Western blot CREB phosphorylation, CTR + RAMPs in CHO cells; conditions: 10 nM, 10 min, n = 3
Procedure: (§3) To assess whether the activation of chicken CTR and CLR, along with the presence of RAMPs, can augment the phosphorylation levels of cAMP response element-binding protein (CREB), 200 ng of CTR or CLR expression plasmids were combined with 1000 ng of chicken RAMPs or an empty pcDNA3.1 (+) vector in a 100 μL buffer. The resulting mixture was then transfected into CHO cells in a 12-well plate (Nunc, Rochester, NY, USA) using 3.6 μL of PEI MAX transfection reagent. After a 24 h incubation period, the cells were exposed to chicken CT (10 nM) or CGRP (10 nM) for 10 min. Subsequently, the culture medium was removed, and the cells were lysed according to the manufacturer’s instructions. Western blot analysis was performed to quantify the levels of CREB and phosphorylated CREB (p-CREB). The optical densities were analyzed and normalized using the software, ImageJ 1.52a (National Institutes of Health, Bethesda, MD, USA). The relative expression of p-CREB/CREB was determined by calculating the ratio of the optical density to that of the control without peptide treatment (0 min).

chicken CTR + RAMP1 = experiment: cAMP/PKA pGL3-CRE-luciferase reporter assay, CTR + RAMP1 in CHO cells; conditions: 10^−12 M to 10^−6 M, 6 h, mean ± SEM, n = 3, read-out: EC50, cAMP/PKA signaling pathway
Procedure: as §1, §2

chicken CTR + RAMP3 [2] = experiment: Calcium pGL3-NFAT-RE-luciferase reporter assay, CTR + RAMP3 in CHO cells; conditions: 10^−12 M to 10^−6 M, 6 h, mean ± SEM, n = 3, read-out: EC50, calcium signaling pathway
Procedure: as §1, §2

chicken CLR + RAMP2 [3] = experiment: Calcium pGL3-NFAT-RE-luciferase reporter assay, CLR + RAMP2 in CHO cells; conditions: CLR + RAMP2, CHO cells, pGL3-NFAT-RE-luciferase, 10^−12 M to 10^−6 M, 6 h; mean ± SEM, n = 3; read-out: EC50, calcium signaling pathway
Procedure: as §1
Prior to the transfection procedure, the cells were initially cultured in 6-well plates (Nunc, Rochester, NY, USA), maintaining a seeding density of approximately 300,000 cells per well. Upon achieving approximately 70% confluence, the cells underwent a co-transfection process. This procedure entailed the introduction of 700 ng of various luciferase reporter constructs (namely, pGL3-CRE-luciferase, pGL4-SRE-luciferase, or pGL3-NFAT-RE-luciferase) combined with 200 ng of a specific receptor plasmid (CTR or CLR) and 1000 ng of either RAMP1, RAMP2, RAMP3 expression plasmids, or alternatively, the empty pcDNA3.1 (+) vector. A volume of 5.7 μL of PEI MAX was used in 200 μL of buffer following the manufacturer’s protocol. After 24 h of incubation, the transfected CHO cells were subcultured in 96-well plates and passaged for an additional 24 h before peptide treatment. Then, the medium from the 96-well plates was removed, and the cells were treated with chicken CT/CGRP-containing medium (or untreated medium as a control) at concentrations ranging from 10^−12 M to 10^−6 M for 6 h. […] The fluorescence activity of the luciferase in each treatment group was measured using a multimode microplate reader (TriStar LB941, Berthold Technologies, Bad Wildbad, Germany). Finally, the fluorescence activity of each treatment group was expressed as a relative increase ratio compared to the control group.

chicken CTR [4] = experiment: Calcium pGL3-NFAT-RE-luciferase reporter assay, CTR + pcDNA in CHO cells; conditions: 10^−12 M to 10^−6 M, 6 h, mean ± SEM, n = 3, read-out: EC50, calcium signaling pathway
Procedure: as §1, §2

chicken CLR + RAMP3 [5] = experiment: MAPK/ERK pGL4-SRE-luciferase reporter assay, CLR + RAMP3 in CHO cells; conditions: 10^−12 M to 10^−6 M, 6 h, mean ± SEM, n = 3, read-out: EC50, MAPK/ERK signaling pathway
Procedure: as §1, §2

chicken CTR [6] = experiment: cAMP/PKA pGL3-CRE-luciferase reporter assay, CTR + pcDNA in CHO cells
Procedure: as §1
(§4) Prior to the transfection procedure, the cells were initially cultured in 6-well plates (Nunc, Rochester, NY, USA), maintaining a seeding density of approximately 300,000 cells per well. Upon achieving approximately 70% confluence, the cells underwent a co-transfection process. This procedure entailed the introduction of 700 ng of various luciferase reporter constructs (namely, pGL3-CRE-luciferase, pGL4-SRE-luciferase, or pGL3-NFAT-RE-luciferase) combined with 200 ng of a specific receptor plasmid (CTR or CLR) and 1000 ng of either RAMP1, RAMP2, RAMP3 expression plasmids, or alternatively, the empty pcDNA3.1 (+) vector. A volume of 5.7 μL of PEI MAX was used in 200 μL of buffer following the manufacturer’s protocol. After 24 h of incubation, the transfected CHO cells were subcultured in 96-well plates and passaged for an additional 24 h before peptide treatment. Then, the medium from the 96-well plates was removed, and the cells were treated with chicken CT/CGRP-containing medium (or untreated medium as a control) at concentrations ranging from 10^−12 M to 10^−6 M for 6 h. Subsequently, the cells were harvested for luciferase assays by lysing them in 1 × passive lysis buffer. To measure the luciferase activity of the cell lysate, 40 μL of luciferase assay reagent (Promega, Madison, WI, USA) was mixed with the cell lysate following the manufacturer’s instructions. The fluorescence activity of the luciferase in each treatment group was measured using a multimode microplate reader (TriStar LB941, Berthold Technologies, Bad Wildbad, Germany). Finally, the fluorescence activity of each treatment group was expressed as a relative increase ratio compared to the control group.

chicken CLR + RAMP3 [7] = experiment: Calcium pGL3-NFAT-RE-luciferase reporter assay, CLR + RAMP3 in CHO cells; conditions: 10^−12 M to 10^−6 M, 6 h, mean ± SEM, n = 3, read-out: EC50, calcium signaling pathway
Procedure: as §1, §2

chicken CLR = experiment: cAMP/PKA pGL3-CRE-luciferase reporter assay, CLR + pcDNA in CHO cells
Procedure: as §1, §4

chicken CLR + RAMP1 [8] = experiment: Calcium pGL3-NFAT-RE-luciferase reporter assay, CLR + RAMP1 in CHO cells; conditions: 10^−12 M to 10^−6 M, 6 h, mean ± SEM, n = 3, read-out: EC50, calcium signaling pathway
Procedure: as §1, §2

chicken CLR + RAMP1 [9] = experiment: MAPK/ERK pGL4-SRE-luciferase reporter assay, CLR + RAMP1 in CHO cells; conditions: 10^−12 M to 10^−6 M, 6 h, mean ± SEM, n = 3, read-out: EC50, MAPK/ERK signaling pathway
Procedure: as §1, §2

chicken CLR + RAMP2 [10] = experiment: MAPK/ERK pGL4-SRE-luciferase reporter assay, CLR + RAMP2 in CHO cells; conditions: 10^−12 M to 10^−6 M, 6 h, mean ± SEM, n = 3, read-out: EC50, MAPK/ERK signaling pathway
Procedure: as §1, §2

[11] = tested on: chicken CLR in the absence or presence of RAMPs; experiment: cAMP/PKA pGL3-CRE-luciferase reporter assay, CLR without and with RAMPs compared
Procedure: as §1, §4

chicken CLR + RAMP3 [12] = experiment: Western blot CREB phosphorylation, CLR + RAMP3 in CHO cells; conditions: 10 nM, 10 min, n = 3
Procedure: as §3

With calcitonin gene-related peptide [CGRP] the EC50 (chicken CTR + RAMP3 [1]) was 0.24 ± 0.07 nM, the “CREB phosphorylation (p-CREB/CREB vs. control, 0 min)” value (chicken CTR + RAMPs) was “significantly increased the CREB phosphorylation” and the EC50 (chicken CTR + RAMP1) was 0.1 ± 0.01 nM. The EC50 (chicken CTR + RAMP3 [2]) was > 100 nM, the EC50 (chicken CLR + RAMP2 [3]) was > 100 nM and the EC50 (chicken CTR [4]) was > 100 nM. The EC50 (chicken CLR + RAMP3 [5]) was 4.31 ± 1.73 nM, the EC50 (chicken CTR [6]; CTR + pcDNA, CHO cells, pGL3-CRE-luciferase, 10^−12 M to 10^−6 M, 6 h, mean ± SEM, n = 3, read-out: EC50, cAMP/PKA signaling pathway) was 2.35 ± 0.63 nM and the “activation (cAMP production), in words” value (chicken CTR [6]; independent CTR) was “preferentially activates CTR”. For the same substance, the EC50 (chicken CLR + RAMP3 [7]) was > 100 nM, the EC50 (chicken CLR; CLR + pcDNA, CHO cells, pGL3-CRE-luciferase, 10^−12 M to 10^−6 M, 6 h, mean ± SEM, n = 3, read-out: EC50, cAMP/PKA signaling pathway) was > 100 nM and the “activation (cAMP production), in words” value (chicken CLR; independent CLR) was “no effect on CLR”. The EC50 (chicken CLR + RAMP1 [8]) was 0.15 ± 0.11 nM, the EC50 (chicken CLR + RAMP1 [9]) was 0.66 ± 0.11 nM and the EC50 (chicken CLR + RAMP2 [10]) was 90.9 ± 17.4 nM. For the same substance, the “effect of RAMP co-expression on sensitivity of CLR” value ([11]; CHO cells, pGL3-CRE-luciferase) was “a significant increase in CLR’s sensitivity to CGRP with RAMP1 and RAMP3 co-expression; also recorded: RAMP2 co-expression led to a limited enhancement in sensitivity”, the “rank order of receptor sensitivity” value ([11]; CLR without/with RAMPs) was “CLR + RAMP1 > CLR + RAMP3 >> CLR + RAMP2 >> CLR” and the “CREB phosphorylation (p-CREB/CREB vs. control, 0 min)” value (chicken CLR + RAMP3 [12]) was “significantly enhanced the CREB phosphorylation”.
